Measurements reported in patent publication US7393812B2, “Methylidene mevalonates and their use as herbicides” (Dow AgroSciences LLC, priority 2004, dated 2008).

How the values were obtained:
Type in all cases: in vivo
[1] = system: barnyardgrass (Echinochloa crusgalli, ECHCG); test: Post-emergent evaluation; conditions: for GR80: data gathered 15 days after treatment, probit analysis; for % growth reduction at the lowest rate tested: 15 days after treatment
Method: (§1) Seeds of the desired test plant species were planted in Grace-Sierra MetroMix® 306 planting mixture, which typically has a pH of 6.0 to 6.8 and an organic matter content of about 30 percent, in plastic pots with a surface area of 64 square centimeters. When required to ensure good germination and healthy plants, a fungicide treatment and/or other chemical or physical treatment was applied. The plants were grown for 7-21 days in a greenhouse with an approximate 15 hr photoperiod which was maintained at about 23-29° C. during the day and 22-28° C. during the night. Nutrients and water were added on a regular basis and supplemental lighting was provided with overhead metal halide 1000-Watt lamps as necessary. The plants were employed for testing when they reached the first or second true leaf stage.
(§2) A weighed amount, determined by the highest rate to be tested, of each test compound was placed in a 20 mL glass vial and was dissolved in 4 mL of a 97:3 v/v (volume/volume) mixture of acetone and dimethyl sulfoxide (DMSO) to obtain concentrated stock solutions. […] The concentrated stock solutions obtained were diluted with an aqueous mixture containing acetone, water, isopropyl alcohol, DMSO, Atplus 411F crop oil concentrate, and Triton X-155 surfactant in a 48.5:39:10:1.5:1.0:0.02 v/v ratio to obtain spray solutions of known concentration. The solutions containing the highest concentration to be tested were prepared by diluting 2 mL aliquots of the stock solution with 13 mL of the mixture and lower concentrations were prepared by serial dilution of the stock solution. Approximately 1.5 mL aliquots of each solution of known concentration were sprayed evenly onto each of the test plant pots using a DeVilbiss atomizer driven by compressed air pressure of 2 to 4 psi ([…]) to obtain thorough coverage of each plant. Control plants were sprayed in the same manner with the aqueous mixture. In this test an application rate of 1 ppm results in the application of approximately 1 g/Ha.
(§3) The treated plants and control plants were placed in a greenhouse as described above and watered by sub-irrigation to prevent wash-off of the test compounds. […] Species abbreviations as described for Table I with the following additions: soybean (Glycine max, GLXMA), rape (Brassica napus, BRSNN), chickweed (Stellaria media, STEME), cocklebur (Xanthium strumarium XANST), lambsquarters (Chenopodium album, CHEAL), violet (Viola tricolor, VIOTR), bindweed (Polygonum convolvulus, POLCO), spurge (Euphorbia heterophylla, EPHHL), Canada thistle (Cirsium arvense, CIRAR), corn (Zea mays, ZEAMX), rice (Oryza sativa, ORYSA), wheat (Triticum aestivum, TRZAS), crabgrass (Digitaria sanguinalis, DIGSA), shattercane (Sorghum vulgare, SORVU) and yellow nutsedge (Cyperus esculentus, CYPES).
(§4) By applying the well-accepted probit analysis as described by J. Berkson in Journal of the American Statistical […], 48, 565 (1953) and by D. Finney in “Probit Analysis” Cambridge University Press (1952), similar data can be used to calculate GR80 values, which are defined as growth reduction factors that correspond to the effective dose of herbicide required to kill or control 80 percent of a target plant. Species abbreviations are as previously defined.

[2] = system: chickweed (Stellaria media, STEME); test: Post-emergent evaluation; conditions: data gathered 15 days after treatment, probit analysis
Method: as §1, §2, §3, §4

[3] = system: giant foxtail (Setaria faberi, SETFA); test: Post-emergent evaluation; conditions: for GR80: data gathered 15 days after treatment, probit analysis; for % growth reduction at the lowest rate tested: 15 days after treatment
Method: as §1, §2, §3, §4

[4] = system: morningglory (Ipomoea hederacea, IPOHE); test: Post-emergent evaluation; conditions: data gathered 15 days after treatment, probit analysis
Method: as §1, §2, §3, §4

[5] = system: shattercane (Sorghum vulgare, SORVU); test: Post-emergent evaluation; conditions: for GR80: data gathered 15 days after treatment, probit analysis
Method: as §1, §2, §3, §4

[6] = system: velvetleaf (Abutilon theophrasti, ABUTH); test: Post-emergent evaluation; conditions: data gathered 15 days after treatment, probit analysis
Method: as §1, §2, §3, §4

[7] = system: violet (Viola tricolor, VIOTR); test: Post-emergent evaluation; conditions: data gathered 15 days after treatment, probit analysis
Method: as §1, §2, §3, §4

[8] = system: crabgrass (Digitaria sanguinalis, DIGSA); test: Post-emergent evaluation; conditions: data gathered 15 days after treatment, probit analysis
Method: as §1, §2
(§5) The treated plants and control plants were placed in a greenhouse as described above and watered by sub-irrigation to prevent wash-off of the test compounds. After 2 weeks the condition of the test plants as compared with that of the untreated plants was determined visually and scored on a scale of 0 to 100 percent where 0 corresponds to no injury and 100 corresponds to complete kill. Species abbreviations as described for Table I with the following additions: soybean (Glycine max, GLXMA), rape (Brassica napus, BRSNN), chickweed (Stellaria media, STEME), cocklebur (Xanthium strumarium XANST), lambsquarters (Chenopodium album, CHEAL), violet (Viola tricolor, VIOTR), bindweed (Polygonum convolvulus, POLCO), spurge (Euphorbia heterophylla, EPHHL), Canada thistle (Cirsium arvense, CIRAR), corn (Zea mays, ZEAMX), rice (Oryza sativa, ORYSA), wheat (Triticum aestivum, TRZAS), crabgrass (Digitaria sanguinalis, DIGSA), shattercane (Sorghum vulgare, SORVU) and yellow nutsedge (Cyperus esculentus, CYPES).
as §4

[9] = system: yellow nutsedge (Cyperus esculentus, CYPES); test: Post-emergent evaluation; conditions: data gathered 15 days after treatment, probit analysis
Method: as §1, §2, §5, §4

test plant species = test: Biological assays of the enantiomers (herbicidal activity); conditions: resolved enantiomers
Method: as §1, with “The plants were employed for testing when they reached the first or second true leaf stage.” left out
A weighed amount, determined by the highest rate to be tested, of each test compound was placed in a 20 mL glass vial and was dissolved in 4 mL of a 97:3 v/v (volume/volume) mixture of acetone and dimethyl sulfoxide (DMSO) to obtain concentrated stock solutions. […]
The treated plants and control plants were placed in a greenhouse as described above and watered by sub-irrigation to prevent wash-off of the test compounds. After 2 weeks the condition of the test plants as compared with that of the untreated plants was determined visually and scored on a scale of 0 to 100 percent where 0 corresponds to no injury and 100 corresponds to complete kill. […]

[10] = system: crabgrass (Digitaria sanguinalis, DIGSA); test: Synergistic herbicidal activity, foliar track sprayer; conditions: nonanoic acid 1120 g ae/ha alone, 14 days, 1% crop oil concentrate
Method: (§6) Methylidene mevalonate alone and in combination with nonanoic acid was applied to the foliage of rapidly growing plant material utilizing a track sprayer calibrated to deliver an application volume of 187 L/ha. These treatments were applied to both broadleaf and grass weed species. All treatments contained 1% crop oil concentrate. Assessment of herbicidal activity was performed visually relative to untreated controls after 14 days incubation in the greenhouse. Species abbreviations are as previously defined.

[11] = system: lambsquarters (Chenopodium album, CHEAL); test: as above; conditions: nonanoic acid 1120 g ae/ha alone, 14 days, 1% crop oil concentrate
Method: as §6

[12] = system: morningglory (Ipomoea hederacea, IPOHE); test: as above; conditions: nonanoic acid 1120 g ae/ha alone, 14 days, 1% crop oil concentrate
Method: as §6

[13] = system: wild oats (Avena fatua, AVEFA); test: as above; conditions: nonanoic acid 1120 g ae/ha alone, 14 days, 1% crop oil concentrate
Method: as §6

Compound	GR80 [1]	% growth reduction at the lowest rate tested [1]	GR80 [2]	GR80 [3]	% growth reduction at the lowest rate tested [3]	GR80 [4]	GR80 [5]	GR80 [6]	GR80 [7]	GR80 [8]	GR80 [9]	GR80 ([1]; Potassium Salt)	GR80 ([2]; Potassium Salt)	GR80 ([3]; Potassium Salt)	GR80 ([4]; Potassium Salt)	GR80 ([5]; Potassium Salt)	GR80 ([6]; Potassium Salt)	GR80 ([7]; Potassium Salt)	GR80 ([8]; Potassium Salt)	GR80 ([9]; Potassium Salt)	other results
C=C(CO)C(C)(O)CC(=O)[O-].[K+] (racemic)	< 375 g ae/ha	98%	2089 g ae/ha	< 375 g ae/ha	95%	375 g ae/ha	400 g ae/ha	720 g ae/ha	1768 g ae/ha	1003 g ae/ha	603 g ae/ha										
C=C(CO)C(C)(O)CC(=O)[O-].[Na+] (racemic)	< 375 g ae/ha	98%	1358 g ae/ha	< 375 g ae/ha	97%	416 g ae/ha	< 375 g ae/ha	965 g ae/ha	2290 g ae/ha	774 g ae/ha	375 g ae/ha										% growth reduction at the lowest rate tested ([5]; lowest rate tested, 15 days after treatment): 93%
C=C(CO)C(C)(O)CC(=O)[O-].[K+] (single isomer, unassigned; (+)) [(+)-4-Methylidene Mevalonate, Potassium Salt]												351 g ae/ha	1349 g ae/ha	183 g ae/ha	341 g ae/ha	490 g ae/ha	1135 g ae/ha	1865 g ae/ha	916 g ae/ha	429 g ae/ha	herbicidal activity (test plant species): herbicidal activity was manifested
C=C(CO)C(C)(O)CC(=O)[O-].[K+] (single isomer, unassigned; (-)) [(−)-4-Methylidene Mevalonate, Potassium Salt]												>1500 g ae/ha	>1500 g ae/ha	>1500 g ae/ha	>1500 g ae/ha	>1500 g ae/ha	>1500 g ae/ha	>1500 g ae/ha	>1500 g ae/ha	>1500 g ae/ha	
C=C1COC(=O)CC1(C)O (centres unmarked) [Methylidene Mevalonolactone]	< 375 g ae/ha	100%	3032 g ae/ha	430 g ae/ha		725 g ae/ha	615 g ae/ha	2266 g ae/ha	2473 g ae/ha	834 g ae/ha	834 g ae/ha										
CCCCCCCCC(=O)O [Nonanoic Acid, nonanoic acid, reference compound]																					Actual Injury % growth reduction [10]: 0%; Actual Injury % growth reduction [11]: 0%; Actual Injury % growth reduction [12]: 0%; Actual Injury % growth reduction [13]: 0%
